Experimental data as given in patent publication US20220016277A1, “MACROCYCLIC COMPLEXES OF RADIONUCLIDES AND THEIR USE IN RADIOTHERAPY OF CANCER” (Cornell University, priority 2018, published 2022).

Test: Organ distribution of ^225Ac complexes following intravenous injection in mice
Assay type: in vivo, C57BL/6 mice
Method: In Vivo Biodistribution of ^225Ac Complexes of Macropa and DOTA. All experiments were approved by the Institutional Animal Care Committee (IACC) of the University of British Columbia and were performed in accordance with the Canadian Council on Animal Care Guidelines. A total of 9 female C57BL/6 mice (6-8 weeks old, 20-25 g) were used for the biodistribution study of each radiometal complex, n=3 for each time point.
Macropa (100 μL of a 1 mg/mL solution in NH4OAc) was diluted with 387 μL of NH4OAc (1 M, pH 7), and an aliquot (203 μL) of ^225Ac(NO3)3 (˜157 kBq) was then added; the pH of this solution was adjusted to 6.5-7 by the addition of 1 M NaOH (210 μL, trace metal grade). After 5 min at ambient temperature, the reaction solution was analyzed by TLC (0.4 M pH 4 sodium citrate as the eluent), which confirmed >95% radiochemical yield. The reaction was allowed to proceed overnight, and the radiochemical yield was again confirmed to be >95% the following morning. At this time, mice were anesthetized by 2% isoflurane, and approximately 100 μL (10-15 kBq) of the [^225Ac(macropa)]^+ complex were injected into the tail vein of each mouse. After injection, mice were allowed to recover and roam freely in their cages, and were euthanized by CO2 inhalation at 15 min, 1 h, or 5 h (n=3 at each time point) post-injection. Blood was collected by cardiac puncture and placed into an appropriate test tube for scintillation counting. Tissues collected included heart, liver, kidneys, lungs, small intestine, large intestine, brain, bladder, spleen, stomach, pancreas, bone, thyroid, tail, urine, and feces. Tissues were weighed and then counted with a calibrated gamma counter (Packard, Cobra II model 5002) using three energy windows: 60-120 keV (window A), 180-260 keV (window B), and 400-480 keV (window C). Counting was performed both immediately after sacrifice and after 7 days; counts were decay corrected from the time of injection and then converted to the percentage of injected dose (% ID) per gram of tissue (% ID/g). […]
The biodistribution studies of [^225Ac(DOTA)]^− and ^225Ac(NO3)3 were carried out as described above for [^225Ac(macropa)]^+, with the following modifications. [^225Ac(DOTA)^− was prepared by adding ^225Ac(NO3)3 (338 μL, 1.1 MBq) to a solution of DOTA (100 μg, 20 mg/mL in H2O) in NH4OAc (467 μL, 0.15 M, pH 7). The pH of the solution was adjusted to 7 using NH4OAc (150 μL, 1 M, pH 7) and the solution was heated at 85° C. for 45 min. RCY >99% was confirmed by TLC as described above. [^225Ac(DOTA)]^− was diluted with saline to a final concentration of 0.05 MBq/100 μL, and 100 μL were injected into each mouse. ^225Ac(NO3)3 (˜58 μL, 0.4 MBq) was diluted and injected in the same manner as [^225Ac(DOTA)]^−. One mouse that was to be euthanized at the 5 h time point in the [^225Ac(DOTA)]^− study died shortly after injection. In the same manner, one mouse that was to be euthanized at the 1 h time point in the ^225Ac(NO3)3 study died.
The in vivo stability [^225Ac(macropa)]^+ was examined by comparing its biodistribution to those of ^225Ac(NO3)3 and [^225Ac(DOTA)]^−. C57BL/6 mice were injected via tail vein with 10-50 kBq of each radiometal complex and were sacrificed after 15 min, 1 h, or 5 h. The amount of ^225Ac retained in each organ was quantified by gamma counting and reported as the percent of injected dose per gram of tissue (% ID/g). The results of these studies are compiled in Tables 1-3. Inadequate stability of an ^225Ac complex leading to the loss of radioisotope in vivo is manifested by the accumulation of ^225Ac in the liver, spleen, and bone of mice.^[11,12,32] […] The biodistribution profile of [^225Ac(macropa)]^+ (FIG. 3B) differs markedly from that of ^225Ac(NO3)3. […] Its biodistribution profile was similar to that of [^225Ac(DOTA)]^− (FIG. 3C), which has been previously shown to retain ^225Ac^3+ in vivo.^[7]

[1] = 15 min post i.v. injection, energy window A (60-120 keV)
[2] = 15 min post i.v. injection, energy window B (180-260 keV)
[3] = 15 min post i.v. injection, energy window C (400-480 keV)
[4] = 1 h post i.v. injection, energy window A (60-120 keV)
[5] = 1 h post i.v. injection, energy window B (180-260 keV)
[6] = 1 h post i.v. injection, energy window C (400-480 keV)
[7] = 5 h post i.v. injection, energy window A (60-120 keV)
[8] = 5 h post i.v. injection, energy window B (180-260 keV)
[9] = 5 h post i.v. injection, energy window C (400-480 keV)
[10] = C57BL/6 mice, i.v., 15 min to 5 h

SMILES: O=[N+]([O-])[O-].O=[N+]([O-])[O-].O=[N+]([O-])[O-].[225Ac] [^225Ac(NO3)3]
- Organ distribution: bladder [1]: 1.477 % ID/g
- Organ distribution: blood [1]: 40.966 % ID/g
- Organ distribution: bone (femur + joint) [1]: 2.764 % ID/g
- Organ distribution: brain [1]: 0.614 % ID/g
- Organ distribution: feces [1]: 0.240 % ID/g
- Organ distribution: heart [1]: 8.557 % ID/g
- Organ distribution: kidneys [1]: 10.468 % ID/g
- Organ distribution: large intestines [1]: 1.116 % ID/g
- Organ distribution: liver [1]: 22.899 % ID/g
- Organ distribution: lungs [1]: 12.757 % ID/g
- Organ distribution: pancreas [1]: 2.366 % ID/g
- Organ distribution: small intestines [1]: 2.002 % ID/g
- Organ distribution: spleen [1]: 22.733 % ID/g
- Organ distribution: stomach [1]: 2.348 % ID/g
- Organ distribution: tail [1]: 7.459 % ID/g
- Organ distribution: thyroids [1]: 4.391 % ID/g
- Organ distribution: urine [1]: 5.527 % ID/g
- Organ distribution: bladder [2]: 1.6996 % ID/g
- Organ distribution: blood [2]: 41.5628 % ID/g
- Organ distribution: bone (femur + joint) [2]: 2.7487 % ID/g
- Organ distribution: brain [2]: 0.6536 % ID/g
- Organ distribution: feces [2]: 0.3857 % ID/g
- Organ distribution: heart [2]: 8.3605 % ID/g
- Organ distribution: kidneys [2]: 9.6424 % ID/g
- Organ distribution: large intestines [2]: 1.1570 % ID/g
- Organ distribution: liver [2]: 23.6091 % ID/g
- Organ distribution: lungs [2]: 12.9714 % ID/g
- Organ distribution: pancreas [2]: 2.2821 % ID/g
- Organ distribution: small intestines [2]: 1.9641 % ID/g
- Organ distribution: spleen [2]: 24.0497 % ID/g
- Organ distribution: stomach [2]: 2.3704 % ID/g
- Organ distribution: tail [2]: 8.0722 % ID/g
- Organ distribution: thyroids [2]: 9.6295 % ID/g
- Organ distribution: urine [2]: 5.0951 % ID/g
- Organ distribution: bladder [3]: 1.9351 % ID/g
- Organ distribution: blood [3]: 42.3521 % ID/g
- Organ distribution: bone (femur + joint) [3]: 3.4560 % ID/g
- Organ distribution: brain [3]: 0.6755 % ID/g
- Organ distribution: feces [3]: 0.4896 % ID/g
- Organ distribution: heart [3]: 9.0992 % ID/g
- Organ distribution: kidneys [3]: 14.2266 % ID/g
- Organ distribution: large intestines [3]: 1.5716 % ID/g
- Organ distribution: liver [3]: 24.1147 % ID/g
- Organ distribution: lungs [3]: 14.4797 % ID/g
- Organ distribution: pancreas [3]: 2.4405 % ID/g
- Organ distribution: small intestines [3]: 2.0956 % ID/g
- Organ distribution: spleen [3]: 25.4263 % ID/g
- Organ distribution: stomach [3]: 2.4232 % ID/g
- Organ distribution: tail [3]: 9.1381 % ID/g
- Organ distribution: thyroids [3]: 3.5934 % ID/g
- Organ distribution: urine [3]: 19.8282 % ID/g
- Organ distribution: bladder [4]: 0.9047 % ID/g
- Organ distribution: blood [4]: 20.8234 % ID/g
- Organ distribution: bone (femur + joint) [4]: 2.4707 % ID/g
- Organ distribution: brain [4]: 0.2995 % ID/g
- Organ distribution: feces [4]: 0.2189 % ID/g
- Organ distribution: heart [4]: 4.4261 % ID/g
- Organ distribution: kidneys [4]: 7.2170 % ID/g
- Organ distribution: large intestines [4]: 0.6035 % ID/g
- Organ distribution: liver [4]: 39.8269 % ID/g
- Organ distribution: lungs [4]: 8.2412 % ID/g
- Organ distribution: pancreas [4]: 2.1771 % ID/g
- Organ distribution: small intestines [4]: 1.5594 % ID/g
- Organ distribution: spleen [4]: 34.8831 % ID/g
- Organ distribution: stomach [4]: 1.6211 % ID/g
- Organ distribution: tail [4]: 5.7939 % ID/g
- Organ distribution: thyroids [4]: 2.5988 % ID/g
- Organ distribution: urine [4]: 4.5194 % ID/g
- Organ distribution: bladder [5]: 0.8092 % ID/g
- Organ distribution: blood [5]: 21.4460 % ID/g
- Organ distribution: bone (femur + joint) [5]: 2.7705 % ID/g
- Organ distribution: brain [5]: 0.3247 % ID/g
- Organ distribution: feces [5]: 0.3300 % ID/g
- Organ distribution: heart [5]: 4.5832 % ID/g
- Organ distribution: kidneys [5]: 6.8770 % ID/g
- Organ distribution: large intestines [5]: 0.5629 % ID/g
- Organ distribution: liver [5]: 41.0995 % ID/g
- Organ distribution: lungs [5]: 8.4426 % ID/g
- Organ distribution: pancreas [5]: 2.1579 % ID/g
- Organ distribution: small intestines [5]: 1.5192 % ID/g
- Organ distribution: spleen [5]: 37.1540 % ID/g
- Organ distribution: stomach [5]: 1.5867 % ID/g
- Organ distribution: tail [5]: 6.4201 % ID/g
- Organ distribution: thyroids [5]: 5.7426 % ID/g
- Organ distribution: urine [5]: 7.0564 % ID/g
- Organ distribution: bladder [6]: 2.2929 % ID/g
- Organ distribution: blood [6]: 11.3736 % ID/g
- Organ distribution: bone (femur + joint) [6]: 2.7213 % ID/g
- Organ distribution: brain [6]: 0.4402 % ID/g
- Organ distribution: feces [6]: 0.1122 % ID/g
- Organ distribution: heart [6]: 3.3464 % ID/g
- Organ distribution: kidneys [6]: 6.2070 % ID/g
- Organ distribution: large intestines [6]: 0.4366 % ID/g
- Organ distribution: liver [6]: 23.6180 % ID/g
- Organ distribution: lungs [6]: 5.2078 % ID/g
- Organ distribution: pancreas [6]: 1.8508 % ID/g
- Organ distribution: small intestines [6]: 3.5548 % ID/g
- Organ distribution: spleen [6]: 38.1082 % ID/g
- Organ distribution: stomach [6]: 2.3350 % ID/g
- Organ distribution: tail [6]: 9.0877 % ID/g
- Organ distribution: thyroids [6]: 0.0000 % ID/g
- Organ distribution: urine [6]: 104.9103 % ID/g
- Organ distribution: bladder [7]: 1.4947 % ID/g
- Organ distribution: blood [7]: 1.9886 % ID/g
- Organ distribution: bone (femur + joint) [7]: 3.5460 % ID/g
- Organ distribution: brain [7]: 0.0452 % ID/g
- Organ distribution: feces [7]: 0.9445 % ID/g
- Organ distribution: heart [7]: 1.3450 % ID/g
- Organ distribution: kidneys [7]: 4.6910 % ID/g
- Organ distribution: large intestines [7]: 0.6479 % ID/g
- Organ distribution: liver [7]: 59.8156 % ID/g
- Organ distribution: lungs [7]: 4.1871 % ID/g
- Organ distribution: pancreas [7]: 0.4874 % ID/g
- Organ distribution: small intestines [7]: 1.3704 % ID/g
- Organ distribution: spleen [7]: 62.9614 % ID/g
- Organ distribution: stomach [7]: 2.6131 % ID/g
- Organ distribution: tail [7]: 23.4055 % ID/g
- Organ distribution: thyroids [7]: −2.7052 % ID/g
- Organ distribution: urine [7]: 4.8267 % ID/g
- Organ distribution: bladder [8]: 1.5234 % ID/g
- Organ distribution: blood [8]: 2.0018 % ID/g
- Organ distribution: bone (femur + joint) [8]: 3.8533 % ID/g
- Organ distribution: brain [8]: 0.0290 % ID/g
- Organ distribution: feces [8]: 1.0201 % ID/g
- Organ distribution: heart [8]: 1.3948 % ID/g
- Organ distribution: kidneys [8]: 3.8752 % ID/g
- Organ distribution: large intestines [8]: 0.6744 % ID/g
- Organ distribution: liver [8]: 62.0765 % ID/g
- Organ distribution: lungs [8]: 4.3379 % ID/g
- Organ distribution: pancreas [8]: 0.4455 % ID/g
- Organ distribution: small intestines [8]: 1.2201 % ID/g
- Organ distribution: spleen [8]: 65.9117 % ID/g
- Organ distribution: stomach [8]: 2.5322 % ID/g
- Organ distribution: tail [8]: 25.4744 % ID/g
- Organ distribution: thyroids [8]: −4.6044 % ID/g
- Organ distribution: urine [8]: 3.3142 % ID/g
- Organ distribution: bladder [9]: 3.4975 % ID/g
- Organ distribution: blood [9]: 2.1769 % ID/g
- Organ distribution: bone (femur + joint) [9]: 3.5851 % ID/g
- Organ distribution: brain [9]: 0.0430 % ID/g
- Organ distribution: feces [9]: 0.8535 % ID/g
- Organ distribution: heart [9]: 1.2018 % ID/g
- Organ distribution: kidneys [9]: 4.2061 % ID/g
- Organ distribution: large intestines [9]: 1.0259 % ID/g
- Organ distribution: liver [9]: 54.1727 % ID/g
- Organ distribution: lungs [9]: 5.4923 % ID/g
- Organ distribution: pancreas [9]: 0.4643 % ID/g
- Organ distribution: small intestines [9]: 1.2922 % ID/g
- Organ distribution: spleen [9]: 62.2357 % ID/g
- Organ distribution: stomach [9]: 2.0358 % ID/g
- Organ distribution: tail [9]: 28.4443 % ID/g
- Organ distribution: thyroids [9]: −0.4455 % ID/g
- Organ distribution: urine [9]: 5.8548 % ID/g
- blood clearance and excretion (in words) [10]: slow blood clearance and excretion
- organ accumulation (in words) [10]: large accumulation in the liver and spleen
